Assay [1] deals with human lymphoma cell line RAMOS cells. In words: Cell growth inhibition test using RAMOS cell, ATP assay (CellTiter-Glo). Format: cell-based. The conditions noted are these: cultured 3 days, 50% growth inhibition concentration. In outline: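 RAMOS cells seeded at 4000 cells/well with compound and cultured 3 days at 37° C, 5% CO2; viability by CellTiter-Glo luminescence. Growth rate T/C % = 100×[(B−C)/(A−C)] using day-0 and final readings; GI50 interpolated from the two concentrations bracketing 50% growth.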
Background: Cellular ATP, detected with luciferase, serves as a proxy for viable cell number.

The target of another assay is T1, TIP48/TIP49 complex (Homo sapiens, UniProt Q9Y230+Q9Y265).
T1 construct: made in house; host or cells: E. coli
In words: ATPase assay of TIP48/TIP49 complex (ADP-Glo). The assay is classed as biochemical. The settings on record: concentration at which the ATPase activity was inhibited by 50%. In outline:
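Recombinant human TIP48 and TIP49 expressed in E. coli (24.5 μg/mL final) were incubated 1.5 h at room temperature with compound (0.0007–200 μM, 2% DMSO) in Tris-HCl pH 7.5 buffer containing MgCl2 and ATP. ADP formed was detected by ADP-Glo luminescence; inhibition came from dose-response curves.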
On the technique in general: ADP-Glo turns the ADP formed in a reaction into a luminescent signal.

A word on the GI50: it is the concentration that inhibits growth by half. A word on the IC50: it is the point on the concentration scale where inhibition reaches its midpoint.

T1 sequence (Q9Y230 whole entry): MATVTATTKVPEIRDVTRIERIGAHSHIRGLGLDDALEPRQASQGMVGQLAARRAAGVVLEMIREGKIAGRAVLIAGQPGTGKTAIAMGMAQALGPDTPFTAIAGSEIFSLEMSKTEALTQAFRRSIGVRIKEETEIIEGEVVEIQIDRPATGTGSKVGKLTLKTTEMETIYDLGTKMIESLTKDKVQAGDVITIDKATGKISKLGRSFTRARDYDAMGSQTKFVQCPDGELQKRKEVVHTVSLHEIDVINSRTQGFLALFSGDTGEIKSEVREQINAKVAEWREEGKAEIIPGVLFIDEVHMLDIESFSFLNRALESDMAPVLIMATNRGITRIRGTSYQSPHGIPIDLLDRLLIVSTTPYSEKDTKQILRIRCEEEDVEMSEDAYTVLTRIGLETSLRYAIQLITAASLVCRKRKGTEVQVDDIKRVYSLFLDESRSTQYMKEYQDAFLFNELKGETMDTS
T1 sequence (Q9Y265 whole entry): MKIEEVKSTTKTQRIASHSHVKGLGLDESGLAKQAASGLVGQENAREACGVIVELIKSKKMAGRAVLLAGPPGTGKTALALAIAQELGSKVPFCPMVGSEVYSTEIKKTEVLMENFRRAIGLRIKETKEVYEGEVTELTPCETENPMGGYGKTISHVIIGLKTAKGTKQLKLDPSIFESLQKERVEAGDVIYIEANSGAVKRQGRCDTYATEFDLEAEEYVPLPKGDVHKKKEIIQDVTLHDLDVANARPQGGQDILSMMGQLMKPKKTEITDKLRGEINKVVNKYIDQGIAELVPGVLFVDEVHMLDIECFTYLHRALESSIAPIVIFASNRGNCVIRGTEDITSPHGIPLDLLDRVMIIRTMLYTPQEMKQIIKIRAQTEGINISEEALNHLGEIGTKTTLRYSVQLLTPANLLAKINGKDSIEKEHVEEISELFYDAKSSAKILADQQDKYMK

`CCOc1ncc(Cl)cc1C(=O)NCC(C)(C)CC(=O)Nc1c(C(CN(C)C)OC)n(C)n(-c2ccccc2)c1=O` (single isomer, unassigned; (+)) [Example 83, (+)-5-Chloro-N-[4-({5-[2-(dimethylamino)-1-methoxyethyl]-1-methyl-3-oxo-2-phenyl-2,3-dihydro-1H-pyrazol-4-yl}amino)-2,2-dimethyl-4-oxobutyl]-2-ethoxypyridine-3-carboxamide]: the GI50 in assay [1] was 490 nM. On TIP48/TIP49 complex, this compound displayed a half-maximal inhibitory concentration (IC50) of 65 nM.
Turning to `CCOc1ccc(Cl)cc1C(=O)NCC(C)(C)CC(=O)Nc1c(C(C)C(C)(C)N(C)C)n(C)n(-c2ccccc2)c1=O` (centres unmarked) [Example 87, 5-Chloro-N-[4-({5-[2-(dimethylamino)-1,2-dimethylpropyl]-1-methyl-3-oxo-2-phenyl-2,3-dihydro-1H-pyrazol-4-yl}amino)-2,2-dimethyl-4-oxobutyl]-2-ethoxybenzamide], the concentration for 50% growth inhibition (GI50) in assay [1] (Homo sapiens, Ramos, 72 h) was determined as 120 nM. At TIP48/TIP49 complex, this compound registered an IC50 of 52 nM.
For `CCOc1ccc(Cl)cc1C(=O)NCC(CF)(CF)CC(=O)Nc1c(CCN(C)C)n(C)n(-c2ccccc2)c1=O` [Example 62, 5-Chloro-N-[4-({5-[2-(dimethylamino)ethyl]-1-methyl-3-oxo-2-phenylpyrazolo-4-yl}amino)-2,2-bis(fluoromethyl)-4-oxobutyl]-2-ethoxybenzamide] the same measures were 500 nM and 150 nM.
`CCOc1ccc(Cl)cc1C(=O)NCC(C)(C)CC(=O)Nc1c(C(C)OC)n(C)n(-c2ccccc2)c1=O` (centres unmarked) [Example 125, 5-Chloro-2-ethoxy-N-(4-{[5-(1-methoxyethyl)-1-methyl-3-oxo-2-phenyl-2,3-dihydro-1H-pyrazol-4-yl]amino}-2,2-dimethyl-4-oxobutyl)benzamide] had a GI50 in assay [1] (Homo sapiens, Ramos, 72 h) of 140 nM. Also, the half-inhibitory concentration (IC50) on TIP48/TIP49 complex stood at 36 nM.
In the same order, the values of `CCOc1cc(F)c(Cl)cc1C(=O)NCC(C)(C)CC(=O)Nc1c(CCNCC(F)(F)F)n(C)n(-c2ccccc2)c1=O` [Example 27, 5-Chloro-N-[2,2-dimethyl-4-({1-methyl-3-oxo-2-phenyl-5-[2-(2,2,2-trifluoroethylamino)ethyl]-2,3-dihydro-1H-pyrazol-4-yl}amino)-4-oxobutyl]-2-ethoxy-4-fluorobenzamide] are 130 nM and 48 nM.
For `Cc1cc2cc(Cl)cc(C(=O)NCC(C)(C)CC(=O)Nc3c(CC(C)(C)N)n(C)n(-c4ccccc4)c3=O)c2o1` [Example 58, N-(4-{[5-(2-amino-2-methylpropyl)-1-methyl-3-oxo-2-phenyl-2,3-dihyro-1H-pyrazol-4-yl]amino}-2,2-dimethyl-4-oxobutyl)-5-chloro-2-methylbenzofuran-7-carboxamide] the same measures were 110 nM and 58 nM.
In the same order, the values of `CCOc1ncc(Cl)cc1NC(=O)CC(C)(C)CC(=O)Nc1c(C(C)OC)n(C)n(-c2ccccc2)c1=O` (centres unmarked) [Example 126, N-(5-Chloro-2-ethoxy-3-pyridyl)-N′-[5-(1-methoxyethyl)-1-methyl-3-oxo-2-phenyl-2,3-dihydro-1H-pyrazol-4-yl]-3,3-dimethylpentanediamide] are 580 nM and 56 nM.

Source of the values: US20170107207A1, “AMINOPYRAZOLONE DERIVATIVE” (DAIICHI SANKYO COMPANY, LIMITED, priority 2014, published 2017).
